Experimental data as given in paper PMC9532703, “A novel small molecule RK-019 inhibits FGFR2-amplification gastric cancer cell proliferation and induces apoptosis in vitro and in vivo” (Frontiers in Pharmacology, 2022).

Legend:
CK1(y) = assay: Kinase selectivity panel; assay type: biochemical, yeast; conditions: read-out: Inhibition(%) @ 1 µM RK-019
Procedure: Median-inhibitory concentration (IC50) and inhibition ratio of kinases by RK-019 was assessed by Eurofins Discovery Services (Dundee, United Kingdom) using the ATP-site competition binding assay in vitro. Firstly, gradient concentration of RK-019 against FGFRs, including FGFR1, FGFR2, FGFR3, and FGFR4, were tested. IC50 value was calculate by the GraphPad Prism software (v8.4.3, GraphPad Software, California, United States). Then, to measure the selectivity prolife of RK-019, a panel of 422 recombinant human kinases was screened at a concentration of 1 µM RK-019. Kinase MAP was drawn by webtools from Cell Signaling Technology, Inc. (www.cellsignal.com).

SNU-16 xenograft = assay: Subcutaneous xenograft model; assay type: in vivo, NOD/SCID mice
Procedure: NOD/SCID mice (6-week-old, weight 18–20 g, Beijing HJF bioscience) were used in this experiment and maintained in a specific-pathogen-free (SPF) condition facility. SNU-16 Cells were resuspended in PBS mixed with Matrigel (1:1) and adjust the density to 1×10^7 per mice (100 μL). The cell suspensions were inoculated subcutaneously on the right flank of the mice. When the mean tumor volume reached approximately 200 mm^3, the mice were divided into four groups (five mice each group): i. Vehicle group, ii. RK-019 15 mg/kg group, iii. RK-019 30 mg/kg group, and iv. RK-019 45 mg/kg group. RK-019 was dissolved in same formula as the in vivo PK study. RK-019 was administrated once per day by oral gavage for 21 days. Tumor volumes were measured three times per week. The tumor volume was measured by a caliper and calculated according to the following formula: Tumor volume=Major axis×Miner axis^2/2.
At the end of administration, the mice were executed euthanasia, then tumors, blood, and organs were extracted. The complete blood count (CBC), serum phosphorus analysis, and blood biochemical analysis were completed by West China Frontier Pharma Tech (Chengdu, China). The pathological section and IHC stanning was completed by Servicebio (Wuhan, China). The tumor growth inhibition (TGI) values were calculated with the following formula: TGI=(1−Tn−T0/Cn−C0)×100%.
Tn and T0 represent average tumor volume before treatment and that of day n after treatment in the treatment group. Cn and C0 represent average tumor volume before treatment and that of day n after treatment in the vehicle group. In this study, n is 21st day.

KATO III cells [1] = assay: Edu staining assay; assay type: cell-based; conditions: 100 nM, 24 h
Procedure: (§1) For Edu staining assay, 1×10^5 cells were seeded in 24-well plates. RK-019 and DMSO were treated as soon as the cells seeded into the plates. After 24 h, the cells were incubated with the medium contained 10 µM Edu for 2 h. After that, the cells were collected and fixated to slide, and then stained with the Cell-Light EdU Apollo488 In Vitro Kit (C10310, Ribobio, Guangzhou, China). After staining, the samples were photographed and analyzed by the ImageJ software (v1.53a, Wayne Rasband, United States).

SNU-16 cells [2] = assay: Edu staining assay; assay type: cell-based; conditions: SNU-16, 100 nM, 24 h
Procedure: as §1

KATO III cells [3] = assay: Apoptosis analysis by flow cytometry (Annexin V-PE/7-AAD); assay type: cell-based; conditions: 72 h
Procedure: (§2) Cell cycle and apoptosis assay were both measured by flow cytometry (FCM). The data were analyzed by the NovoExpress software (v1.4.0, Agilent, Santa Clara, CA, United States). For cell cycle assay, the cells were treated by different concentrations of RK-019 for 24 h, then were harvested and washed twice with cold phosphate buffered solution (PBS), followed by fixed with 75% ethanol overnight. Before test, the cells were washed twice with cold PBS and stained with PI stanning solution using cell cycle detecting kit (KGA512, KeyGEN, Nanjing, China), and then measured by FCM. […]

SNU-16 cells [4] = assay: as above; assay type: cell-based; conditions: SNU-16, 72 h
Procedure: as §2

KATO III cells [5] = assay: Cell counting assay (trypan blue); assay type: cell-based; conditions: KATO III, 5, 10, and 100 nM, 9 days
Procedure: (§3) SNU-16 and KATO III were seeded in 6-well plated with 1×10^5 per well. RK-019 was treated as soon as the cells seeded in the 6-well plates. After indicated time, the images were captured using an inverted microscope. Then, the cells in the captured well were resuspended and live cell numbers were determined by the trypan blue (BL627A, Biosharp, Hefei, China) method.

SNU-16 cells [6] = assay: Cell counting assay (trypan blue); assay type: cell-based; conditions: SNU-16, 10 and 100 nM, 9 days
Procedure: as §3

COc1cc(OC)cc(N(CCN[C@H](C)CO)c2ccc3ncc(-c4cnn(C)c4)c(=O)n3c2)c1 [RK-019, (R)-7-((3,5-dimethoxyphenyl) (2-((1-hydroxypropan-2-yl)amino)ethyl)amino)-3-(1-methyl-1H-pyrazol-4-yl)-4H-pyrido [1,2-a]pyrimidin-4-one]
activity (CK1(y)): 94% | TGI (SNU-16 xenograft; 15 mg/kg oral once a day, 21 days): 34.3% | TGI (SNU-16 xenograft; 30 mg/kg oral once a day, 21 days): 85.9% | TGI (SNU-16 xenograft; 45 mg/kg oral once a day, 21 days): 83.5% | tumor weight (SNU-16 xenograft; RK-019-treated group vs vehicle group, 21 days): significant decrease | number of cleaved-caspase 3-positive cells (IHC of tumor tissue) (SNU-16 xenograft; after 21 days treatment): increased significantly | number of p-FGFR2-positive and Ki67-positive cells (IHC of tumor tissue) (SNU-16 xenograft; after 21 days treatment): decreased | number of Edu-positive stained cells (KATO III cells [1]): significantly decreased | number of Edu-positive stained cells (SNU-16 cells [2]): significantly decreased | population of apoptotic cells (early and late apoptotic cells) (KATO III cells [3]): 32.7% | population of apoptotic cells (early and late apoptotic cells) (SNU-16 cells [4]): 45.5% | live cell numbers, prolonged administration (KATO III cells [5]): suppressed | live cell numbers, prolonged administration (SNU-16 cells [6]): inhibited
